What is called EC50 is the concentration at which the effect is half-maximal. Low readings indicate a more potent agent, high ones a less potent agent.

A value given as a limit tells only on which side of the number the result lay.

In this test the test system is HIV-1 NL4-3 virus. Briefly: Anti-HIV-1 activity, multicycle assay with HIV-1 NL4-3 in TZM-bl cells. In kind it is cell-based. The note with it: for EC50: Human immunodeficiency virus 1, NL43, TZM-bl; for SI (selectivity index, ratio of CC50/EC50): Table 1, TZM-bl cells.

On to `COc1ccc(N(C)C(=O)[C@H](Cc2cc(F)cc(F)c2)NC(=O)c2cn(Cc3ccccc3C)nn2)cc1` [I-8a, (S)-N-(3-(3,5-Difluorophenyl)-1-((4-methoxyphenyl)(methyl)amino)-1-oxopropan-2-yl)-1-(2-methylbenzyl)-1H-1,2,3-triazole-4-carboxamide], for which the EC50 amounted to 8.85 ± 2.69 µM and the “SI (selectivity index, ratio of CC50/EC50)” value is reported as above 2.18.
For `COc1ccc(N(C)C(=O)[C@H](Cc2cc(F)cc(F)c2)NC(=O)c2cn(Cc3cccc(C)c3)nn2)cc1` [I-8b, (S)-N-(3-(3,5-Difluorophenyl)-1-((4-methoxyphenyl)(methyl)amino)-1-oxopropan-2-yl)-1-(3-methylbenzyl)-1H-1,2,3-triazole-4-carboxamide], in that order: 9.43 ± 2.31 µM and above 2.04.
For `COc1ccc(N(C)C(=O)[C@H](Cc2cc(F)cc(F)c2)NC(=O)c2cn(Cc3ccc(C)cc3)nn2)cc1` [I-8c, (S)-N-(3-(3,5-Difluorophenyl)-1-((4-methoxyphenyl)(methyl)amino)-1-oxopropan-2-yl)-1-(4-methylbenzyl)-1H-1,2,3-triazole-4-carboxamide], in that order: 10.6 ± 3.46 µM and above 1.82.
On the same counts, the results for `COc1ccc(N(C)C(=O)[C@H](Cc2cc(F)cc(F)c2)NC(=O)c2cn(Cc3ccccc3Cl)nn2)cc1` [I-8d, (S)-1-(2-Chlorobenzyl)-N-(3-(3,5-difluorophenyl)-1-((4-methoxyphenyl)(methyl)amino)-1-oxopropan-2-yl)-1H-1,2,3-triazole-4-carboxamide] are 9.63 ± 2.04 µM and above 1.92.
Regarding `COc1ccc(N(C)C(=O)[C@H](Cc2cc(F)cc(F)c2)NC(=O)c2cn(Cc3cccc(Cl)c3)nn2)cc1` [I-8e, (S)-1-(3-Chlorobenzyl)-N-(3-(3,5-difluorophenyl)-1-((4-methoxyphenyl)(methyl)amino)-1-oxopropan-2-yl)-1H-1,2,3-triazole-4-carboxamide], the EC50 stood at 8.33 ± 1.41 µM and the “SI (selectivity index, ratio of CC50/EC50)” value is recorded as above 2.22.
For `COc1ccc(N(C)C(=O)[C@H](Cc2cc(F)cc(F)c2)NC(=O)c2cn(Cc3ccc(Cl)cc3)nn2)cc1` [I-8f, (S)-1-(4-chlorobenzyl)-N-(3-(3,5-difluorophenyl)-1-((4-methoxyphenyl)(methyl)amino)-1-oxopropan-2-yl)-1H-1,2,3-triazole-4-carboxamide], in that order: 8.7 ± 1.65 µM and above 2.13.
For `COc1ccc(N(C)C(=O)[C@H](Cc2cc(F)cc(F)c2)NC(=O)c2cn(Cc3ccccc3C#N)nn2)cc1` [I-8g, (S)-1-(2-Cyanobenzyl)-N-(3-(3,5-difluorophenyl)-1-((4-methoxyphenyl)(methyl)amino)-1-oxopropan-2-yl)-1H-1,2,3-triazole-4-carboxamide], in that order: 9.61 ± 2.07 µM and above 1.96.
Regarding `COc1ccc(N(C)C(=O)[C@H](Cc2cc(F)cc(F)c2)NC(=O)c2cn(Cc3cccc(C#N)c3)nn2)cc1` [I-8h, (S)-1-(3-Cyanobenzyl)-N-(3-(3,5-difluorophenyl)-1-((4-methoxyphenyl)(methyl)amino)-1-oxopropan-2-yl)-1H-1,2,3-triazole-4-carboxamide], the concentration giving a half-maximal response (EC50) stood at 3.58 ± 0.64 µM and the “SI (selectivity index, ratio of CC50/EC50)” value is recorded as above 5.27.
Regarding `COc1ccc(N(C)C(=O)[C@H](Cc2cc(F)cc(F)c2)NC(=O)c2cn(Cc3ccc(C#N)cc3)nn2)cc1` [I-8i, (S)-1-(4-Cyanobenzyl)-N-(3-(3,5-difluorophenyl)-1-((4-methoxyphenyl)(methyl)amino)-1-oxopropan-2-yl)-1H-1,2,3-triazole-4-carboxamide], the half-maximal effective concentration (EC50) came to 5.84 ± 1.53 µM and the “SI (selectivity index, ratio of CC50/EC50)” value is reported as above 3.23.
On the same counts, the results for `COc1ccc(N(C)C(=O)[C@H](Cc2cc(F)cc(F)c2)NC(=O)c2cn(Cc3ccccc3[N+](=O)[O-])nn2)cc1` [I-8j, (S)-N-(3-(3,5-Difluorophenyl)-1-((4-methoxyphenyl)(methyl)amino)-1-oxopropan-2-yl)-1-(2-nitrobenzyl)-1H-1,2,3-triazole-4-carboxamide] are 3.27 ± 0.78 µM and above 5.55.
In turn, `COc1ccc(N(C)C(=O)[C@H](Cc2cc(F)cc(F)c2)NC(=O)c2cn(Cc3cccc([N+](=O)[O-])c3)nn2)cc1` [I-8k, (S)-N-(3-(3,5-Difluorophenyl)-1-((4-methoxyphenyl)(methyl)amino)-1-oxopropan-2-yl)-1-(3-nitrobenzyl)-1H-1,2,3-triazole-4-carboxamide] returned a half-maximal effective concentration (EC50) of 10 ± 1.76 µM.
As for `COc1ccc(N(C)C(=O)[C@H](Cc2cc(F)cc(F)c2)NC(=O)c2cn(Cc3ccc([N+](=O)[O-])cc3)nn2)cc1` [I-8l, (S)-N-(3-(3,5-Difluorophenyl)-1-((4-methoxyphenyl)(methyl)amino)-1-oxopropan-2-yl)-1-(4-nitrobenzyl)-1H-1,2,3-triazole-4-carboxamide], a half-maximal response (EC50) required 9.26 ± 2.54 µM and the “SI (selectivity index, ratio of CC50/EC50)” value is recorded as above 1.96.
For `COc1ccc(N(C)C(=O)[C@H](Cc2cc(F)cc(F)c2)NC(=O)c2cn(Cc3cccc4ccccc34)nn2)cc1` [I-8m, (S)-N-(3-(3,5-Difluorophenyl)-1-((4-methoxyphenyl)(methyl)amino)-1-oxopropan-2-yl)-1-(naphthalen-1-ylmethyl)-1H-1,2,3-triazole-4-carboxamide], the concentration giving a half-maximal response (EC50) is 14.8 ± 3.24 µM and the “SI (selectivity index, ratio of CC50/EC50)” value is given as above 1.22.
On to `COc1ccc(N(C)C(=O)[C@H](Cc2cc(F)cc(F)c2)NC(=O)c2cn(Cc3ccc4ccccc4c3)nn2)cc1` [I-8n, (S)-N-(3-(3,5-Difluorophenyl)-1-((4-methoxyphenyl)(methyl)amino)-1-oxopropan-2-yl)-1-(naphthalen-2-ylmethyl)-1H-1,2,3-triazole-4-carboxamide], for which the midpoint of the response, the EC50, lay at 14.6 ± 2.34 µM and the “SI (selectivity index, ratio of CC50/EC50)” value is listed as above 1.23.
For `COc1ccc(N(C)C(=O)[C@H](Cc2cc(F)cc(F)c2)NC(=O)c2cn(-c3ccc4c(c3)OCO4)nn2)cc1` [I-8q, (S)-1-(Benzo[d][1,3]dioxol-5-yl)-N-(3-(3,5-difluorophenyl)-1-((4-methoxyphenyl)(methyl)amino)-1-oxopropan-2-yl)-1H-1,2,3-triazole-4-carboxamide], in that order: 9.15 ± 2.8 µM and above 2.04.
For `COc1ccc(N(C)C(=O)[C@H](Cc2cc(F)cc(F)c2)NC(=O)c2cn(Cc3ccc(S(N)(=O)=O)cc3)nn2)cc1` [I-8r, (S)-N-(3-(3,5-Difluorophenyl)-1-((4-methoxyphenyl)(methyl)amino)-1-oxopropan-2-yl)-1-(4-sulfamoylbenzyl)-1H-1,2,3-triazole-4-carboxamide], in that order: 12.3 ± 2.39 µM and above 1.39.
On the same counts, the results for `COc1ccc(N(C)C(=O)[C@H](Cc2cc(F)cc(F)c2)NC(=O)c2cn(Cc3ccc(C(N)=O)cc3)nn2)cc1` [I-8s, (S)-1-(4-Carbamoylbenzyl)-N-(3-(3,5-difluorophenyl)-1-((4-methoxyphenyl)(methyl)amino)-1-oxopropan-2-yl)-1H-1,2,3-triazole-4-carboxamide] are 11.1 ± 2 µM and above 1.64.
